#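 The compound was tested at five concentrations on cells cultured in 96-well plates, with a 48-hour exposure period. TGI marks complete inhibition of growth.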
# Assays:
# Test in all cases: NCI tumour cell line growth inhibition, 48 h
# OVCAR-3 ovarian = system: OVCAR-3 ovarian
# SK-OV-3 ovarian = system: SK-OV-3 ovarian
# SK-MEL-5 melanoma = system: SK-MEL-5 melanoma
# NCI-H522 lung = system: NCI-H522 lung
# HOP-18 NSCLC = system: HOP-18 NSCLC
# HCT-116 colon = system: HCT-116 colon
# KM12 colon = system: KM12 colon
# LXFL 529 NSCLC = system: LXFL 529 NSCLC
# UACC-257 melanoma = system: UACC-257 melanoma
# SF-268 CNS = system: SF-268 CNS
# NCI-H460 lung = system: NCI-H460 lung
# HL-60(TB) leukemia = system: HL-60(TB) leukemia
# NCI-H226 lung = system: NCI-H226 lung
# SW-620 colon = system: SW-620 colon
# MALME-3M melanoma = system: MALME-3M melanoma
# HCC-2998 colon = system: HCC-2998 colon
# HOP-92 NSCLC = system: HOP-92 NSCLC
# SN12C renal = system: SN12C renal
# HT29 colon = system: HT29 colon
# ACHN renal = system: ACHN renal
# 786-0 renal = system: 786-0 renal
# MOLT-4 leukemia = system: MOLT-4 leukemia
# SNB-78 CNS = system: SNB-78 CNS
# SF-539 CNS = system: SF-539 CNS
# SF-295 CNS = system: SF-295 CNS
# SK-MEL-28 melanoma = system: SK-MEL-28 melanoma
# U251 CNS = system: U251 CNS
# A549 NSCLC = system: A549 NSCLC
# EKVX NSCLC = system: EKVX NSCLC
# NCI-H23 lung = system: NCI-H23 lung
# XF 498 CNS = system: XF 498 CNS
# DLD-1 colon = system: DLD-1 colon
# SK-MEL-2 melanoma = system: SK-MEL-2 melanoma
# UACC-62 melanoma = system: UACC-62 melanoma
# COLO 205 colon = system: COLO 205 colon
# A498 renal = system: A498 renal
# SNB-75 CNS = system: SNB-75 CNS
# DMS 114 small cell lung = system: DMS 114 small cell lung
# DMS 273 small cell lung = system: DMS 273 small cell lung
# K-562 leukemia = system: K-562 leukemia
# OVCAR-4 ovarian = system: OVCAR-4 ovarian
# SNB-19 CNS = system: SNB-19 CNS
# OVCAR-5 ovarian = system: OVCAR-5 ovarian
# M19-MEL melanoma = system: M19-MEL melanoma
# SR leukemia = system: SR leukemia
# HOP-62 NSCLC = system: HOP-62 NSCLC
# RXF 393 renal = system: RXF 393 renal
# CCRF-CEM leukemia = system: CCRF-CEM leukemia
# LOX IMVI melanoma = system: LOX IMVI melanoma
# OVCAR-8 ovarian = system: OVCAR-8 ovarian
# KM20L2 colon = system: KM20L2 colon
# TK-10 renal = system: TK-10 renal
# HCT-15 colon = system: HCT-15 colon
# CAKI-1 renal = system: CAKI-1 renal
# IGROV1 ovarian = system: IGROV1 ovarian
# RPMI-8226 leukemia = system: RPMI-8226 leukemia
# UO-31 renal = system: UO-31 renal
# RXF-631 renal = system: RXF-631 renal
# M14 melanoma = system: M14 melanoma
# MCF7 breast = system: MCF7 breast
# P388 leukemia = system: P388 leukemia
# SN12K1 renal = system: SN12K1 renal
# NCI/ADR-RES ovarian = system: NCI/ADR-RES ovarian
smiles,measurement,setting,value
Brc1ccc2c(C3CN[C@@H](c4c[nH]c5cc(Br)ccc45)CN3)c[nH]c2c1 (stereo partly drawn),TGI,OVCAR-3 ovarian,19.7 µM
same,TGI,SK-OV-3 ovarian,16.6 µM
same,TGI,SK-MEL-5 melanoma,14.3 µM
same,TGI,NCI-H522 lung,5.6 µM
same,TGI,HOP-18 NSCLC,24.6 µM
same,TGI,HCT-116 colon,3.55 µM
same,TGI,KM12 colon,3.47 µM
same,TGI,LXFL 529 NSCLC,6.86 µM
same,TGI,UACC-257 melanoma,23.4 µM
same,TGI,SF-268 CNS,19.1 µM
same,TGI,NCI-H460 lung,3.85 µM
same,TGI,HL-60(TB) leukemia,7.72 µM
same,TGI,NCI-H226 lung,7.96 µM
same,TGI,SW-620 colon,9.05 µM
same,TGI,MALME-3M melanoma,26.5 µM
same,TGI,HCC-2998 colon,5.43 µM
same,TGI,HOP-92 NSCLC,9.29 µM
same,TGI,SN12C renal,17.7 µM
same,TGI,HT29 colon,9.52 µM
same,TGI,ACHN renal,12.6 µM
same,TGI,786-0 renal,9.91 µM
same,TGI,MOLT-4 leukemia,11 µM
same,TGI,SNB-78 CNS,22.7 µM
same,TGI,SF-539 CNS,12.9 µM
same,TGI,SF-295 CNS,12.4 µM
same,TGI,SK-MEL-28 melanoma,23.8 µM
same,TGI,U251 CNS,18.5 µM
same,TGI,A549 NSCLC,9.02 µM
same,TGI,EKVX NSCLC,21.9 µM
same,TGI,NCI-H23 lung,7.13 µM
same,TGI,XF 498 CNS,18.7 µM
same,TGI,DLD-1 colon,12.8 µM
same,TGI,SK-MEL-2 melanoma,10.9 µM
same,TGI,UACC-62 melanoma,17.5 µM
same,TGI,COLO 205 colon,3.49 µM
same,TGI,A498 renal,9.36 µM
same,TGI,SNB-75 CNS,31.7 µM
same,TGI,DMS 114 small cell lung,5.14 µM
same,TGI,DMS 273 small cell lung,5.13 µM
same,TGI,K-562 leukemia,9.4 µM
same,TGI,OVCAR-4 ovarian,13.6 µM
same,TGI,SNB-19 CNS,22.4 µM
same,TGI,OVCAR-5 ovarian,10.1 µM
same,TGI,M19-MEL melanoma,19.4 µM
same,TGI,SR leukemia,3.08 µM
same,TGI,HOP-62 NSCLC,16.2 µM
same,TGI,RXF 393 renal,4.41 µM
same,TGI,CCRF-CEM leukemia,11.7 µM
same,TGI,LOX IMVI melanoma,9.03 µM
same,TGI,OVCAR-8 ovarian,15.9 µM
same,TGI,KM20L2 colon,4.96 µM
same,TGI,TK-10 renal,20.8 µM
same,TGI,HCT-15 colon,13.6 µM
same,TGI,CAKI-1 renal,25.9 µM
same,TGI,IGROV1 ovarian,23.6 µM
same,TGI,RPMI-8226 leukemia,5.16 µM
same,TGI,UO-31 renal,18.1 µM
same,TGI,RXF-631 renal,12.9 µM
same,TGI,M14 melanoma,9.6 µM
COc1cc(-c2ccc(N=Nc3c(S(=O)(=O)O)cc4cc(S(=O)(=O)O)cc(N)c4c3O)c(OC)c2)ccc1N=Nc1c(S(=O)(=O)O)cc2cc(S(=O)(=O)O)cc(N)c2c1O,TGI,OVCAR-3 ovarian,> 100 µM
same,TGI,SK-OV-3 ovarian,> 100 µM
same,TGI,SK-MEL-5 melanoma,> 100 µM
same,TGI,NCI-H522 lung,> 100 µM
same,TGI,HOP-18 NSCLC,> 100 µM
same,TGI,HCT-116 colon,> 100 µM
same,TGI,KM12 colon,> 100 µM
same,TGI,UACC-257 melanoma,> 100 µM
same,TGI,SF-268 CNS,> 100 µM
same,TGI,NCI-H460 lung,> 100 µM
same,TGI,HL-60(TB) leukemia,> 100 µM
same,TGI,NCI-H226 lung,> 100 µM
same,TGI,SW-620 colon,> 100 µM
same,TGI,MALME-3M melanoma,> 100 µM
same,TGI,HCC-2998 colon,> 100 µM
same,TGI,HOP-92 NSCLC,> 77.4 µM
same,TGI,SN12C renal,> 100 µM
same,TGI,HT29 colon,> 100 µM
same,TGI,MOLT-4 leukemia,> 100 µM
same,TGI,SNB-78 CNS,> 100 µM
same,TGI,SF-539 CNS,> 100 µM
same,TGI,SF-295 CNS,> 100 µM
same,TGI,SK-MEL-28 melanoma,> 100 µM
same,TGI,U251 CNS,> 100 µM
same,TGI,A549 NSCLC,> 100 µM
same,TGI,EKVX NSCLC,> 100 µM
same,TGI,NCI-H23 lung,> 100 µM
same,TGI,XF 498 CNS,> 67.9 µM
same,TGI,DLD-1 colon,> 100 µM
same,TGI,SK-MEL-2 melanoma,> 100 µM
same,TGI,COLO 205 colon,> 100 µM
same,TGI,A498 renal,> 100 µM
same,TGI,SNB-75 CNS,> 100 µM
same,TGI,DMS 114 small cell lung,> 100 µM
same,TGI,DMS 273 small cell lung,> 100 µM
same,TGI,K-562 leukemia,> 100 µM
same,TGI,MCF7 breast,> 100 µM
same,TGI,OVCAR-4 ovarian,> 100 µM
same,TGI,SNB-19 CNS,> 100 µM
same,TGI,OVCAR-5 ovarian,> 100 µM
same,TGI,M19-MEL melanoma,> 100 µM
same,TGI,HOP-62 NSCLC,> 100 µM
same,TGI,RXF 393 renal,> 100 µM
same,TGI,CCRF-CEM leukemia,> 100 µM
same,TGI,LOX IMVI melanoma,> 100 µM
same,TGI,P388 leukemia,> 100 µM
same,TGI,OVCAR-8 ovarian,> 100 µM
same,TGI,KM20L2 colon,> 100 µM
same,TGI,SN12K1 renal,> 100 µM
same,TGI,HCT-15 colon,> 100 µM
same,TGI,IGROV1 ovarian,> 100 µM
same,TGI,RPMI-8226 leukemia,> 100 µM
same,TGI,UO-31 renal,> 100 µM
same,TGI,NCI/ADR-RES ovarian,> 100 µM

# — PubChem BioAssay (NCI)
